Results as given in patent publication US11512073B2, “Benzimidazole derivatives, pharmaceutical composition comprising the same, and use thereof” (Chongqing University of Arts and Sciences, priority 2020, dated 2022).

Tests used:
[1] = tested on: MDA-MB-231 and MDA-MB-468 cells; test: Immunofluorescence of γH2AX and p62; type: cell-based, Human
Procedure: Cells were plated on glass coverslips in 24-well plates prior to treatment. After being exposed to different doses of compound 7a for 48 h, cells were washed with PBS for three times, fixed with 4% paraformaldehyde-PBS for 30 min, and then followed by permeabilization with 0.1% Triton X-100 for 10 min. Next, the samples were blocked with QuickBlock Blocking Buffer for Immunol Staining (Beyotime) for 30 min at 37° C., and incubated with anti-Ki67 (1:250), anti-LC3B antibody (1:250), anti-SQSTM1 antibody (1:250) or anti-γH2AX (1:250) overnight at 4° C. After washing with PBS three times, the stained cells were incubated with Alexa Fluor-conjugated secondary antibodies (1:2000) for 1 hour at room temperature. Moreover, 1 mg/mL DAPI dissolved in PBS were employed to label nuclei (30 min). Images were captured with a High Content analysis system (Perkinelmer, MA, USA).

[2] = tested on: MDA-MB-231 and MDA-MB-468 cells; test: Immunoblotting of cell cycle, apoptosis, autophagy and DDR proteins; type: cell-based, Human
Procedure: MDA-MB-231 and MDA-MB-468 cells were treated with the compound 7a (0, 5, 10 and 20 μmol/L) for 48 h, total protein was extracted using RIPA buffer (Beyotime, Shanghai, China) supplemented with protease/phosphatase inhibitor cocktail (Roche, Mannheim, Germany) at 4° C. for 30 min. The protein concentration was quantified by the BCA protein assay kit (Beyotime). Protein samples (50 μg) were separated by SDS-PAGE with appropriate gel concentration and subsequent electrophoretically transferred onto PVDF membranes (Millipore Corporation, MA, USA). After blocking with 5% BSA for 2 h at ambient temperature, the membranes sections were incubated gently with the indicated primary antibodies overnight at 4° C. and washed with TBST for 5×5 minutes. Subsequently, the membranes were then incubated with corresponding IRDye 800CW goat anti-mouse IgG (H+L) or IRDye 680LT donkey anti-rabbit IgG (H+L) secondary antibody for 1 h. The objective protein signal was obtained using an odyssey two-color infrared fluorescence imaging system (Li-cor, NE, USA). For immunoprecipitation, harvested cells were lysed in ice-cold NP-40 buffer including 50 mM Tris-HCl (pH 7.4), 150 mM NaCl, 0.5% NP-40, 1 mM Na3VO4, 50 mM NaF and protease inhibitor cocktail (Roche). Lysate was centrifuged at 12,000×g for 20 min at 4° C. The supernatant was incubated with anti-HA at 4° C. overnight, followed by incubation with Protein-A/G beads overnight (Beyotime). The proteins were washed six times with ice-cold NP-40 buffer and eluted with SDS loading buffer containing mercaptoethanol by boiling for 10 min.

## O=C(NC1CCCCC1)c1[nH]cnc1-c1nc2ccccc2[nH]1 [Compound 7a]
[1]; 48 h
  γH2AX foci: accumulation of γH2AX foci in nuclei
[1]; dose-dependent
  p62 signal in nuclei: accumulated in the nuclei
[2]; TNBC cells
  p62 level: resulted in a p62 accumulation
[2]; immunoblotting
  expression of BRCA2, RAD51 and RNF8: significantly reduced
  levels of BRCA2 and RAD51: dramatically decreased levels of both proteins in a dose-dependent manner
  phosphorylation of ATM, NBS1 and SMC1: activated
[2]; immunoblotting of fractions
  p62 in nuclear and cytoplasmic proteins: drastic p62 increase in the nucleus and cytoplasm in a dose-dependent manner
[2]; immunoblotting, 48 h
  P21 and phosphorylation levels of CHK1 (Serine 345) and CHK2 (Threonine 68): increased P21 and the phosphorylation levels of CHK1 (Serine 345) and CHK2 (Threonine 68) in a dose-dependent manner
  anti-apoptotic protein Bcl-2: decrease of anti-apoptotic protein Bcl-2
  cytochrome c, cleaved caspase-3, cleaved caspase-9 and cleaved PARP: increased in a dose-dependent manner
  levels of Cyclin A, Cyclin B, CDK1 and CDK2: decreased the levels of Cyclin A, Cyclin B, CDK1 and CDK2
  pro-apoptotic proteins Bak, Bim and Bax: elevated in a dose-dependent manner
[2]; immunoblotting, dose-dependent
  γH2AX level: significantly increased
[2]; immunofluorescence and western blotting, dose- and time-dependent
  conversion to LC3B-II: significantly induced
